{
  "source": "paper PMC3400326",
  "about": "(Pharmacogenomics and personalized medicine, 2011)",
  "key": {"SULT1A1": {"target": "SULT1A1 (Homo sapiens, UniProt P50225)", "sequence (P50225 whole entry)": "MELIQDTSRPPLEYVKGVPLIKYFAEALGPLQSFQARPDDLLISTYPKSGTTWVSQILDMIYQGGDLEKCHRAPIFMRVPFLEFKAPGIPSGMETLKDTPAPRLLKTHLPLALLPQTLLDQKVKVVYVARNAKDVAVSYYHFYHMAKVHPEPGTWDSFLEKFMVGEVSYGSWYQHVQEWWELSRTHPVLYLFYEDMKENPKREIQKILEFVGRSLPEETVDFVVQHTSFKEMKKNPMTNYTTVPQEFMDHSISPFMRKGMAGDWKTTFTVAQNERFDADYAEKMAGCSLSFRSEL", "assay": "intrinsic fluorescence titration", "type": "binding"}, "SULT1E1": {"target": "T1, SULT1E1 (Homo sapiens, UniProt P49888)", "T1 sequence (P49888 1-294)": "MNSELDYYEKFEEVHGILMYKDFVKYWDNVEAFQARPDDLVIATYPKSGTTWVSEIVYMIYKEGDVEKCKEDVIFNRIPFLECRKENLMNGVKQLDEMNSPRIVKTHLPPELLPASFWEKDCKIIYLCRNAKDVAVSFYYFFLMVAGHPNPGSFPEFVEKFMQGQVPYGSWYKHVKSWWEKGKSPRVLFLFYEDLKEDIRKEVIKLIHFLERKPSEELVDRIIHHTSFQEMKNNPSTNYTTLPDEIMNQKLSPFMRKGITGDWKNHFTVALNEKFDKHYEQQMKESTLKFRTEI", "assay": "intrinsic fluorescence titration", "type": "binding"}},
  "data": [
    {"compound": "C[C@]12CC[C@@H]3c4ccc(O)cc4C[C@@H](CCCCCCCCC[S+]([O-])CCCC(F)(F)C(F)(F)F)[C@H]3[C@@H]1CC[C@@H]2O", "note": "(some centres unmarked) [fulvestrant]", "values": [
      {"measurement": "Kd", "setting": "SULT1A1", "result": "2300 ± 400", "unit": "nM"},
      {"measurement": "Kd", "setting": "SULT1E1", "result": "200 ± 20", "unit": "nM"}
    ]}
  ]
}
